# Reference: ChEMBL document CHEMBL5465560, “Selectivity Literature for EUbOPEN Chemogenomic Library” (2024)
# Key:
# [1] = target: Mitogen-activated protein kinase 1 (Homo sapiens, UniProt P28482); experiment: Selectivity interaction (KinomeScan (DiscoverX)) EUB0000655a MAPK1; details: at 10 µM
# [2] = target: Receptor-interacting serine/threonine-protein kinase 2 (Homo sapiens, UniProt O43353); experiment: Selectivity interaction (ProQinase) EUB0000171b RIPK2
# [3] = target: T1, Cyclin-dependent kinase 11A (Homo sapiens) (UniProt Q9UQ88); details: at 10 µM
# T1 sequence (whole entry): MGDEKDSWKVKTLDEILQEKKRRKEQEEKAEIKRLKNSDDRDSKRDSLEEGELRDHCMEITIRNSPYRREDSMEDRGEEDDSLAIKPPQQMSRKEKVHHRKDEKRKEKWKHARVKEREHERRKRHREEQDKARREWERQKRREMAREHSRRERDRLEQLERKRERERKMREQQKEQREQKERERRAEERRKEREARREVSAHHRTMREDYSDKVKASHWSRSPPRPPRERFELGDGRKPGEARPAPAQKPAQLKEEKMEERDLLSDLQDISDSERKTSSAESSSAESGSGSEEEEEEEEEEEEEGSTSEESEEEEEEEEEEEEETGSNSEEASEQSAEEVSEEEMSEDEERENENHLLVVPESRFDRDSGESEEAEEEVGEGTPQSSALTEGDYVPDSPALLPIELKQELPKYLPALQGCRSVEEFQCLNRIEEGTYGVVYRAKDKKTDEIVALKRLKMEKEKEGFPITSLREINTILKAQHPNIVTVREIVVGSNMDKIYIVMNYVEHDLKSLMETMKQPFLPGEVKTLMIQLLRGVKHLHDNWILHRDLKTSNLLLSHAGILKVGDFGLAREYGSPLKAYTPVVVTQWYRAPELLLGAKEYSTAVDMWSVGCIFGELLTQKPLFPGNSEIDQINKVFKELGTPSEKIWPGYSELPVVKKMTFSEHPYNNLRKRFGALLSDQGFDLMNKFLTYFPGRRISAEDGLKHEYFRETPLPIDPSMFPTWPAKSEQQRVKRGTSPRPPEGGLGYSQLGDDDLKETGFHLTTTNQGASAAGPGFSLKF
# [4] = target: T2, Ephrin type-B receptor 6 (Homo sapiens) (UniProt O15197); details: at 10 µM
# T2 sequence (whole entry): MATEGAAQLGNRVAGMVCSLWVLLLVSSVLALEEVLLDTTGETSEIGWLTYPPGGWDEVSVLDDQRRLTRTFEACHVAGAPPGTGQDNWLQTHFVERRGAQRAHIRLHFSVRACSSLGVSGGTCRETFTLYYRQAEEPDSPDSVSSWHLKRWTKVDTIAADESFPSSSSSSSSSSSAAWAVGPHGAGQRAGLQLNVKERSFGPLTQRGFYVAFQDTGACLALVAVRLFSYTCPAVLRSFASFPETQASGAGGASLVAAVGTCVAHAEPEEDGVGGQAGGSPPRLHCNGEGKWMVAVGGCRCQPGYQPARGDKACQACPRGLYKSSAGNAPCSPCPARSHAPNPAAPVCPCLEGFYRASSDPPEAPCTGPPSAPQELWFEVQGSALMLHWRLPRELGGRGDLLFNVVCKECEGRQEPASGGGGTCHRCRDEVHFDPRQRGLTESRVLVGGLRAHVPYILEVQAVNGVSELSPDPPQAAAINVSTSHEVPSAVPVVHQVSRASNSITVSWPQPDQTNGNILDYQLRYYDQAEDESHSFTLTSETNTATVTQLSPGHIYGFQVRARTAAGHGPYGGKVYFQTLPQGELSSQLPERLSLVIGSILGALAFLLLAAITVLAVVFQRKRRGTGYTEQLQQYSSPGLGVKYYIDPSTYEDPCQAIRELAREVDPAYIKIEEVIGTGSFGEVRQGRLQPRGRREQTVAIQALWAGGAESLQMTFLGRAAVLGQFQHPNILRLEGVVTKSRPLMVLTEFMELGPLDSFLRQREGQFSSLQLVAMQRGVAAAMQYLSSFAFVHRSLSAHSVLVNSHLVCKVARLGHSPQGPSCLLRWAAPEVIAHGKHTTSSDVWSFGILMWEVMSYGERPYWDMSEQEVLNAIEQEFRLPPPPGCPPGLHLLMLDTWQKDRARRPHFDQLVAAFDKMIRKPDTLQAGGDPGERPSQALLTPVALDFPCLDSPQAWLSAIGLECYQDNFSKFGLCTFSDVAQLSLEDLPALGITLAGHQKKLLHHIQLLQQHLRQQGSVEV
# SRSF protein kinase 1 = SRSF protein kinase 1 (Homo sapiens, UniProt Q96SB4); experiment: Selectivity interaction (KinomeScan (DiscoverX)) EUB0000045b SRPK1
# Sequence of SRSF protein kinase 1 (Q96SB4 whole entry, the tested form may be a part): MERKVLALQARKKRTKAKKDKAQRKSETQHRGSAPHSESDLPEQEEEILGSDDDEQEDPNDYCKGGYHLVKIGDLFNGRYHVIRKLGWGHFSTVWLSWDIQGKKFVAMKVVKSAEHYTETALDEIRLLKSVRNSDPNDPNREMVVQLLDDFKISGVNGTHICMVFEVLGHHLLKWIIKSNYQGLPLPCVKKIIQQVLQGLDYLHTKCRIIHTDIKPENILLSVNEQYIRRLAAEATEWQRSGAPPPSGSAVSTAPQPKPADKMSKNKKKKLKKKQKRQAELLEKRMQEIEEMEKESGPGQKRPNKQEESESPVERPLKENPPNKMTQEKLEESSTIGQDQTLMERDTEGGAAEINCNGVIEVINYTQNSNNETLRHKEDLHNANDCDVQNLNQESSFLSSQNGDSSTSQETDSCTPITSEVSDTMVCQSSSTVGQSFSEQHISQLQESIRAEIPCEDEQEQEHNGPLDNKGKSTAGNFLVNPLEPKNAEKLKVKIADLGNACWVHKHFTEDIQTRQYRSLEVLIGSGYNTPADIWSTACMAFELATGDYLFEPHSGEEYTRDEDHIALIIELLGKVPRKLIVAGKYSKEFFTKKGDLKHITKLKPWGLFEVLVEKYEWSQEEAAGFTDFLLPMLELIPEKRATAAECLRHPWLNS
# [5] = target: T3, Discoidin domain-containing receptor 2 (Homo sapiens) (UniProt Q16832); experiment: Selectivity interaction (KinomeScan (DiscoverX)) EUB0001619a DDR2; details: at 1 µM
# T3 sequence (whole entry): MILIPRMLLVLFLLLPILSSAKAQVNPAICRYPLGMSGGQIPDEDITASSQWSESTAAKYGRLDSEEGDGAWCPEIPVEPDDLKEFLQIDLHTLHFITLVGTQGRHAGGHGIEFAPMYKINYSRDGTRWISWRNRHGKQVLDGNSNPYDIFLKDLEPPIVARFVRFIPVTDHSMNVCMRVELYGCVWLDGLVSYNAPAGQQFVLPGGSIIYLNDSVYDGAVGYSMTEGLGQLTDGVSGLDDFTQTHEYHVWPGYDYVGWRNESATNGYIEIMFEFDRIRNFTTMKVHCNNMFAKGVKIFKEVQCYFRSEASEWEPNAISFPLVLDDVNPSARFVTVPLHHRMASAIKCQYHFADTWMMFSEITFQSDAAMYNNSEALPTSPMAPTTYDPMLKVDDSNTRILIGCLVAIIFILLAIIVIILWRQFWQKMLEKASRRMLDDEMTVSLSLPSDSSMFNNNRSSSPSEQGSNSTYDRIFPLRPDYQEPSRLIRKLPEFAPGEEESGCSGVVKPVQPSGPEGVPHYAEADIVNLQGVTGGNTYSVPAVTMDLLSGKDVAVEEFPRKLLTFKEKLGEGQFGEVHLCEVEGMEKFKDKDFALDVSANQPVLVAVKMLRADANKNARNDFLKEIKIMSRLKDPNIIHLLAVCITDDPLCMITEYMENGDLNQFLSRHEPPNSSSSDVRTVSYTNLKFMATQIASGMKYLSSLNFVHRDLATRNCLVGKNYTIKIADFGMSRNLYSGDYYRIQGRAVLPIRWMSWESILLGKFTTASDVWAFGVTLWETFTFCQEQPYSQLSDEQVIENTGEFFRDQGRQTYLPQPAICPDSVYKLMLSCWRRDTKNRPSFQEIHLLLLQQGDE
# [6] = target: Serine/threonine-protein kinase pim-2 (Homo sapiens, UniProt Q9P1W9); experiment: Selectivity interaction (KinomeScan (DiscoverX)) EUB0001619a PIM2; details: at 1 µM
# Sequence of Serine/threonine-protein kinase pim-2 (Q9P1W9 whole entry, looked up): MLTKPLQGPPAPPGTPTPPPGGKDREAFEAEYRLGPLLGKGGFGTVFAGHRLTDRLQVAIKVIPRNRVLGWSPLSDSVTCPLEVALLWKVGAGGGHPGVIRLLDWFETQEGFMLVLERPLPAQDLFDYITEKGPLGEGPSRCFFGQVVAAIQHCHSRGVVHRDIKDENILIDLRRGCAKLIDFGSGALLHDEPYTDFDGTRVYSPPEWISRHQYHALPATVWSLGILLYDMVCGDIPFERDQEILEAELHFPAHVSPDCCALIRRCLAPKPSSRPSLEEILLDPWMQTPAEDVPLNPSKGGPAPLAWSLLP
# Sequence of Receptor-interacting serine/threonine-protein kinase 2 (O43353 whole entry): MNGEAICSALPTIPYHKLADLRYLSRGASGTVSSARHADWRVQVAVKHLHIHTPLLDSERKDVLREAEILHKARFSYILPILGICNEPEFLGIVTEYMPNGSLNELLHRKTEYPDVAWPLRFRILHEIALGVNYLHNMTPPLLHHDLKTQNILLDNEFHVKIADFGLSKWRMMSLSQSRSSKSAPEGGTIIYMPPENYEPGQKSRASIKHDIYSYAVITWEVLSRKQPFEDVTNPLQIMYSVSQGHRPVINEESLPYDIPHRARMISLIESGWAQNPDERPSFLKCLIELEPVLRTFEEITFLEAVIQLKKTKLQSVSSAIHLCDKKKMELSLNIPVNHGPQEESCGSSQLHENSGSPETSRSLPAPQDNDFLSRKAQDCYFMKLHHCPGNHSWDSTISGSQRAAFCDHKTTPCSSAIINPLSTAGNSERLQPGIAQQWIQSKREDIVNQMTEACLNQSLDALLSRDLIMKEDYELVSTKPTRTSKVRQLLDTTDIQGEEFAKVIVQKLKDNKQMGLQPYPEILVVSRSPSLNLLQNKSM
# Sequence of Mitogen-activated protein kinase 1 (P28482 whole entry): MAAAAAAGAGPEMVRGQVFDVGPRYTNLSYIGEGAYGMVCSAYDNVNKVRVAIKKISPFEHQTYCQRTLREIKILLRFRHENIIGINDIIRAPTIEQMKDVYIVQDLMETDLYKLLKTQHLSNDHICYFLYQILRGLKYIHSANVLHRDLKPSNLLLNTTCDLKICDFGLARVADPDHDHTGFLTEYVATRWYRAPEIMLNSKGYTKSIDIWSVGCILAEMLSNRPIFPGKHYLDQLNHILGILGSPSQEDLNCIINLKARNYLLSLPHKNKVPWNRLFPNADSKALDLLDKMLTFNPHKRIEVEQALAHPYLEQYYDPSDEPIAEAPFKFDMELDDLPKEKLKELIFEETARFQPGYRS
smiles,measurement,setting,value
CN(C)CCOc1ccc(-c2nc(-c3ccncc3)c(-c3ccc4c(c3)CC/C4=N\O)[nH]2)cc1,% of control,[1],100%
C=CC(=O)Nc1cccc(C(=O)Nc2ccc(Nc3cc(-c4[nH]c(SC)nc4C)ccn3)cc2)c1,% of control,[2]; at 1 µM,77%
same,% of control,[2]; at 5 µM,43%
Cc1cc([C@@H](C)Nc2ccccc2C(=O)O)c2nc(N3CCOCC3)cc(=O)n2c1 [AZD-6482],% of control,[3],91%
same,% of control,[4],41%
C=CC(=O)Nc1cc(-n2c(=O)ccc3cnc4ccc(-c5ccc(NS(C)(=O)=O)cc5)cc4c32)ccc1C,% of control,SRSF protein kinase 1; at 1 µM,78%
same,% of control,SRSF protein kinase 1; at 10 µM,100%
N#Cc1cccc(-c2c[nH]c3ncnc(N4CCOCC4)c23)c1,% of control,[5],71%
same,% of control,[6],100%
